Assay results reported in ChEMBL document CHEMBL1201862, “PubChem BioAssay data set” (2004).
The source made the active and inactive calls.

Assays:
[1] = microbe, parasite or virus in culture; type: functional; conditions: Mycobacterium tuberculosis
[2] = HepG2 cell cytotoxicity, dose response, cytotoxicity control for non-replicating M. tuberculosis project (AID 489018); type: functional; conditions: Mycobacterium tuberculosis
[3] = inhibitors of SNCA 5'UTR-driven reporter translation, confirmation, H4 neuroglioma cells, luminescence (AID 1988); type: functional, cell-based
[4] = test system: BJ; experiment: cells; type: functional, cell-based; conditions: Homo sapiens
[5] = test system: BJ; experiment: cytotoxicity toward BJ-TERT-LT-ST fibroblasts, dose response, cell-based, RAS-independent, luminescence (AID 1935); type: functional; conditions: Homo sapiens;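 also: BJ fibroblasts immortalized with TERT plus LT and ST oncogenes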
[6] = target: T1, Replicative DNA helicase DnaB (Mycobacterium tuberculosis, UniProt P9WMR3); experiment: DnaB intein splicing inhibitors, dose response, biochemical, cell-free fluorescence (AID 449749); type: functional
T1 sequence (P9WMR3 whole entry): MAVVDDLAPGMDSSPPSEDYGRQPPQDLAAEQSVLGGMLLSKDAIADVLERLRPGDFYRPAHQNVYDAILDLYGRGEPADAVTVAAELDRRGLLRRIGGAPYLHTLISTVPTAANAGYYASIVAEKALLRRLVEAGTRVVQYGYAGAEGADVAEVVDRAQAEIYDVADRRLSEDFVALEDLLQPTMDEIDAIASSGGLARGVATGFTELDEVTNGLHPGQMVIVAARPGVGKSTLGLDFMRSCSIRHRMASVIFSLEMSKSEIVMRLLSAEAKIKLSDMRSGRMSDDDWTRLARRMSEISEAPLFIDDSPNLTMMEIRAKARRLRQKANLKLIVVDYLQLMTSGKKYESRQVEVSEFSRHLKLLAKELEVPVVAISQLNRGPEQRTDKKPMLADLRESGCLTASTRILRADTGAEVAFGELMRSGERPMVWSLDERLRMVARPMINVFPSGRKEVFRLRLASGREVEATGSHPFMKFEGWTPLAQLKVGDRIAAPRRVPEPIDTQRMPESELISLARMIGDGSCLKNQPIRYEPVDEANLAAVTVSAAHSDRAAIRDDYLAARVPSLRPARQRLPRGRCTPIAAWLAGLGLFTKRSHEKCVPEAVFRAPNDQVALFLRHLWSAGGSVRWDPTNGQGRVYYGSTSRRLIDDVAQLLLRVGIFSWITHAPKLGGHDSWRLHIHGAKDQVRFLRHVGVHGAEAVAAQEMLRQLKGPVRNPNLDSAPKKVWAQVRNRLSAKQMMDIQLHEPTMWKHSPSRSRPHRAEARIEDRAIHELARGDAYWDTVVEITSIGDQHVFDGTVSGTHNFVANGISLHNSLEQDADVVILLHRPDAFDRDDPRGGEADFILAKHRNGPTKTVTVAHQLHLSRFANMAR

Oc1c(C(c2ccccc2Cl)N2CCCC2)ccc2cccnc12 (stereo unspecified)
CC50 [1]: 30.5 µM (active) | CC50 [2]: 17.6 µM (active)

COc1cccc(/C=N/Nc2ccc([N+](=O)[O-])cn2)c1O
EC50 [3]: 0.54 µM (active) | EC50 [4]: 9.14 µM (inconclusive) | EC50 [5]: 4.96 µM (inconclusive)

CCc1ccc(S(=O)(=O)/N=C2\C=C(Nc3ccc(C(=O)O)cc3)C(=O)c3ccccc32)cc1
AC50 [6]: > 380 µM (inconclusive)
